Earlier results as cited in US6783757B2, “Composition and method for increasing exorphin catabolism to treat autism” (Kirkman Group, Inc., priority 2000, dated 2004).

Test system: DPPIV
Conditions: cultured mouse intestinal wall cells (enterocyte cells)

O=C[C@H](O)[C@@H](O)[C@@H](O)[C@H](O)CO [galactose]
expression of DPPIV: increase the expression of DPPIV
